{"source": "patent US8961927B2", "about": "“Agents for magnetic imaging method” (Bracco Imaging S.p.A., priority 2002, dated 2015)", "type_in_all_cases": "cell-based", "key": {"[1]": {"test_system": "human hepatoma cells HTC", "experiment": "Differential uptake in rat hepatocytes and human hepatoma cells HTC, time course", "settings": "substrate 1.3 mM, 37° C. in EBSS", "procedure": "This experiment has been carried out as follows:\nRat hepatocytes were cultured in M199 medium supplemented with 2 mg/ml bovine serum albumin (BSA), 3.6 mg/ml Hepes, 100 U/ml penicillin, 100 U/μg streptomycin, and 10 nmol/insulin; HTC cells were cultured in RPMI 1640 medium supplemented with 10% foetal bovine serum, 100 U/ml penicillin and 100 U/μg streptomycin.\nThe uptake experiments were performed in 5 ml EBSS, Earl's Balanced Salt Solution, (CaCl2 0.266 g/l; KCl 0.4 g/l; NaCl 6.8 g/l; glucose 1 g/l; MgSO4 0.204 g/l; NaH2PO4 0.144 g/l; NaHCO3 2.2 g/l).\n[…] The substrate concentration was for both cell lines 1.3 mM."}, "[2]": {"test_system": "human hepatoma cells HepG2", "experiment": "Differential uptake in hepatocytes and hepatoma cell lines HepG2, EBSS without glucose, compound of Example 3", "settings": "substrate 5.1 mM, time course, FIG. 2", "procedure": "The cells were cultured as in Example 12 above. The uptake experiments were performed in 5 ml EBSS without glucose to avoid competition between this compound and the test compound.\nThe substrate concentration was 5.1 mM and a time course analysis was done."}, "[3]": {"test_system": "panel of cancer cell lines", "experiment": "Uptake in a panel of cancer cell lines compared with healthy hepatocytes, compound of Example 3", "settings": "substrate 5.1 mM; after 2 hours; FIG. 3", "procedure": "The substrate concentration was 5.1 mM and the uptake was measured after 2 hours from the administration of the test compound."}}}
{"substance": "Gadolinium Complex of [4-(1,6,10-triazaundecan)-phenyl-aminocarbonylmethyl]-1,4,7,10-tetraazacyclododecan-4,7,10-triacetic acid [Example 11]", "values": [{"measurement": "uptake by the human hepatoma cells HTC relative to the one in hepatocytes", "setting": "[1]; after 0.5 hour", "value": "⅓"}, {"measurement": "uptake by the human hepatoma cells HTC relative to the one in hepatocytes", "setting": "[1]; after six hours", "value": "more than 4 times"}, {"measurement": "uptake by the human hepatoma cells HTC relative to the one in hepatocytes", "setting": "[1]; at 2 hours", "value": "more than 3 times"}]}
{"substance": "Gadolinium Complex of 3,6,9-triaza-3,6,9-tricarboxymethylundecanoic acid bis-glucopyranosylamide [Example 3]", "values": [{"measurement": "uptake in human hepatoma cells HepG2 compared with hepatocyte", "setting": "[2]", "value": "higher uptake"}, {"measurement": "uptake of Gd in cancer cell lines compared with healthy hepatocytes", "setting": "[3]", "value": "increased in all the cancer cell lines"}]}
